The compounds below were run on HIV-1 single-round infectious reporter virus (assay: Single-round infectious HIV-1 luciferase reporter virus infection of HeLa CD4 cells (antiviral EC50)). Settings: Human immunodeficiency virus 1, HeLa, 72 h, read-out: EC50 Group from Table 1.
Format: cell-based
How it was run: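 HeLa CD4 cells infected with env-pseudotyped, luciferase-reporter single-round HIV-1 (MOI ~0.01) in presence of compound (final ≤10 μM), harvested 72 h at 37 °C. Luciferase luminescence expressed as percent inhibition versus no-compound control; EC50 from 10-concentration four-parameter logistic fit.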
With `N#CC(=C1CCN(C(=O)C(=O)c2c[nH]c3c(-n4ccnn4)ncc(F)c23)CC1)c1ccccc1` [Example 129a, {1-[2-(4-Fluoro-7-[1,2,3]triazol-1-yl-1H-pyrrolo[2,3-c]pyridin-3-yl)-2-oxo-acetyl]-piperidin-4-ylidene}-phenyl-acetonitrile] the EC50 was < 1000 nM. With `C=C(C)c1nnc(C(=C2CCN(C(=O)C(=O)c3c[nH]c4c(-n5cnc(C)n5)ncc(OC)c34)CC2)c2ccccc2)o1` [Example 130, 1-[4-(1-Phenyl-1-(5-isopropenyl-1,3,4-oxadiazol-2-yl)-methylene)-piperidin-1-yl]-2-[4-methoxy-7-(3-methyl-1,2,4-triazol-1-yl)-6-azaindol-3-yl]-ethane-1,2-dione] the EC50 was < 1000 nM. For `COc1cnc(-n2cnc(C)n2)c2[nH]cc(C(=O)C(=O)N3CCC(=C(c4ccccc4)c4nnco4)CC3)c12` [Example 131, 1-[4-(1-Phenyl-1-(1,3,4-oxadiazol-2-yl)-methylene)-piperidin-1-yl]-2-[4-methoxy-7-(3-methyl-1,2,4-triazol-1-yl)-6-azaindol-3-y]-ethane-1,2-dione], the EC50 was < 1000 nM. With `COc1cnc(-n2ccnn2)c2[nH]cc(C(=O)C(=O)N3CCC(=C(c4ccccc4)c4nnco4)CC3)c12` [Example 132, 1-[4-(1-Phenyl-1-(1,3,4-oxadiazol-2-yl)-methylene)-piperidin-1-yl]-2-[4-methoxy-7-(1,2,3-triazol-1-yl)-6-azaindol-3-yl]-ethane-1,2-dione] the EC50 was < 1000 nM. With `COc1cnc(-n2cnc(C)n2)c2[nH]cc(C(=O)C(=O)N3CCC(=C(c4ccccc4)c4nnc(C5CCC5)o4)CC3)c12` [Example 133, 1-[4-(1-Phenyl-1-(5-cyclobutyl-1,3,4-oxadiazol-2-yl)-methylene)-piperidin-1-yl]-2-[4-methoxy-7-(3-methyl-1,2,4-triazol-1-yl)-6-azaindol-3-yl]-ethane-1,2-dione] the EC50 was < 1000 nM. For `COc1cnc(-n2cnc(C)n2)c2[nH]cc(C(=O)C(=O)N3CCC(=C(c4ccccc4)c4nnc(C(C)(C)C)o4)CC3)c12` [Example 134, 1-[4-(1-Phenyl-1-(5-tert-butyl-1,3,4-oxadiazol-2-yl)-methylene)-piperidin-1-yl]-2-[4-methoxy-7-(3-methyl-1,2,4-triazol-1-yl)-6-azaindol-3-yl]-ethane-1,2-dione], the EC50 was < 1000 nM. For `COc1cnc(-n2cnc(C)n2)c2[nH]cc(C(=O)C(=O)N3CCC(=C(c4ccccc4)c4nnc(-c5ccccc5)o4)CC3)c12` [Example 135, 1-[4-(1-Phenyl-1-(5-phenyl-1,3,4-oxadiazol-2-yl)-methylene)-piperidin-1-yl]-2-[4-methoxy-7-(3-methyl-1,2,4-triazol-1-yl)-6-azaindol-3-yl]-ethane-1,2-dione], the EC50 was > 500 nM. With `COc1cnc(-n2cnc(C)n2)c2[nH]cc(C(=O)C(=O)N3CCC(=C(c4ccccc4)c4cn(C)cn4)CC3)c12` [Example 136, 1-[4-(1-Phenyl-1-(1-methylimidazol-4-yl)-methylene)-piperidin-1-yl]-2-(4-methoxy-7-(3-methyl-1,2,4-triazol-1-yl)-6-azaindol-3-yl)-ethane-1,2-dione] the EC50 was < 1000 nM. In the case of `COc1cnc(-n2cc(C)nn2)c2[nH]cc(C(=O)C(=O)N3CCC(=C(c4ccccc4)c4cc(C)n[nH]4)CC3)c12` [Example 137, 1-[4-(1-Phenyl-1-(3-methylpyrazol-5-yl)-methylene)-piperidin-1-yl]-2-(4-methoxy-7-(4-methyl-1,2,3-triazol-1-yl)-6-azaindol-3-yl)-ethane-1,2-dione], the EC50 is reported as < 1000 nM. `COc1cnc(-n2cc(C)nn2)c2[nH]cc(C(=O)C(=O)N3CCC(=C(c4ccccc4)c4nnc(C)o4)CC3)c12` [Example 138, 1-[4-(1-Phenyl-1-(5-methyl-1,3,4-oxadiazol-2-yl)-methylene)-piperidin-1-yl]-2-(4-methoxy-7-(4-methyl-1,2,3-triazol-1-yl)-6-azaindol-3-yl)-ethane-1,2-dione] was tested, and the EC50 was < 1000 nM. With `COc1cnc(-c2nnc(C)[nH]2)c2[nH]cc(C(=O)C(=O)N3CCC(=C(c4ccccc4)c4nnc(C)o4)CC3)c12` [Example 139, 1-[4-(1-Phenyl-1-(5-methyl-1,3,4-oxadiazol-2-yl)-methylene)-piperidin-1-yl]-2-(4-methoxy-7-(5-methyl-1,3,4-triazol-2-yl)-6-azaindol-3-yl)-ethane-1,2-dione] the EC50 was < 1000 nM. `COc1cnc(-c2cc(C)n[nH]2)c2[nH]cc(C(=O)C(=O)N3CCC(=C(c4ccccc4)c4nnc(C)o4)CC3)c12` [Example 140, 1-[4-(1-Phenyl-1-(5-methyl-1,3,4-oxadiazol-2-yl)-methylene)-piperidin-1-yl]-2-(4-methoxy-7-(5-methylpyrazole-3-yl)-6-azaindol-3-yl)-ethane-1,2-dione] was tested, and the EC50 was < 1000 nM. In the case of `COc1cnc(-n2cnc(C)n2)c2[nH]cc(C(=O)C(=O)N3CCC(=C(c4ccccc4)c4cnn(C)c4)CC3)c12` [Example 141, 1-[4-(1-Phenyl-1-(1-methylpyrazol-4-yl)-methylene)-piperidin-1-yl]-2-(4-methoxy-7-(3-methyl-1,2,4-triazol-1-yl)-6-azaindol-3-yl)-ethane-1,2-dione], the EC50 is reported as < 1000 nM. `COc1cnc(-n2ccnn2)c2[nH]cc(C(=O)C(=O)N3CCC(=C(c4ccccc4)c4cnn(C)c4)CC3)c12` [Example 142, 1-[4-(1-Phenyl-1-(1-methylpyrazol-4-yl)-methylene)-piperidin-1-yl]-2-(4-methoxy-7-(1,2,3-triazol-1-yl)-6-azaindol-3-yl)-ethane-1,2-dione] was tested, and the EC50 was < 1000 nM. With `COc1cnc(-n2cnc(C)n2)c2[nH]cc(C(=O)C(=O)N3CCC(=C(c4ccccc4)c4cnn(Cc5ccccc5)c4)CC3)c12` [Example 143, 1-[4-(1-Phenyl-1-(1-benzylpyrazol-4-yl)-methylene)-piperidin-1-yl]-2-(4-methoxy-7-(3-methyl-1,2,4-triazol-1-yl)-6-azaindol-3-yl)-ethane-1,2-dione] the EC50 was < 1000 nM. For `COc1cnc(-n2ccnn2)c2[nH]cc(C(=O)C(=O)N3CCC(=C(c4ccccc4)c4cnn(Cc5ccccc5)c4)CC3)c12` [Example 144, 1-[4-(1-Phenyl-1-(1-benzylpyrazol-4-yl)-methylene)-piperidin-1-yl]-2-(4-methoxy-7-(1,2,3-triazol-1-yl)-6-azaindol-3-yl)-ethane-1,2-dione], the EC50 was < 1000 nM.

From patent US20080188481A1 (priority 2002, published 2008)
